Assay results published in patent US10899754B2, “Modulators of indoleamine 2,3-dioxygenase” (GLAXOSMITHKLINE INTELLECTUAL PROPERTY DEVELOPMENT LIMITED, priority 2016, dated 2021).

Experiments:
[1] = test system: human peripheral blood mononuclear cells (PBMC); test: PBMC cytotoxicity assay (CellTiter-Glo); type: cell-based; conditions: 2 days, pCC50
Procedure: (§1) Compounds of the present invention were tested via high-throughput cellular assays utilizing detection of kynurenine via mass spectrometry and cytotoxicity as end-points. For the mass spectrometry and cytotoxicity assays, human peripheral blood mononuclear cells (PBMC) (PB003F; AllCells®, Alameda, Calif.) were stimulated with human interferon-γ (IFN-γ) (Sigma-Aldrich Corporation, St. Louis, Mo.) and lipopolysaccharide from Salmonella minnesota (LPS) (Invivogen, San Diego, Calif.) to induce the expression of indoleamine 2, 3-dioxygenase (IDO1). Compounds with IDO1 inhibitory properties decreased the amount of kynurenine produced by the cells via the tryptophan catabolic pathway. Cellular toxicity due to the effect of compound treatment was measured using CellTiter-Glo® reagent (CTG) (Promega Corporation, Madison, Wis.), which is based on luminescent detection of ATP, an indicator of metabolically active cells.
(§2) In preparation for the assays, test compounds were serially diluted 3-fold in DMSO from a typical top concentration of 1 mM or 5 mM and plated at 0.5 μL in 384-well, polystyrene, clear bottom, tissue culture treated plates with lids (Greiner Bio-One, Kremsmünster, Austria) to generate 11-point dose response curves. Low control wells (0% kynurenine or 100% cytotoxicity) contained either 0.5 μL of DMSO in the presence of unstimulated (−IFN-γ/−LPS) PBMCs for the mass spectrometry assay or 0.5 μL of DMSO in the absence of cells for the cytotoxicity assay, and high control wells (100% kynurenine or 0% cytotoxicity) contained 0.5 μL of DMSO in the presence of stimulated (+IFN-γ/+LPS) PBMCs for both the mass spectrometry and cytotoxicity assays.
(§3) Frozen stocks of PBMCs were washed and recovered in RPMI 1640 medium (Thermo Fisher Scientific, Inc., Waltham, Mass.) supplemented with 10% v/v heat-inactivated fetal bovine serum (FBS) (Thermo Fisher Scientific, Inc., Waltham, Mass.), and 1× penicillin-streptomycin antibiotic solution (Thermo Fisher Scientific, Inc., Waltham, Mass.). The cells were diluted to 1,000,000 cells/mL in the supplemented RPMI 1640 medium. 50 μL of either the cell suspension, for the mass spectrometry assay, or medium alone, for the cytotoxicity assay, were added to the low control wells, on the previously prepared 384-well compound plates, resulting in 50,000 cells/well or 0 cells/well respectively. IFN-γ and LPS were added to the remaining cell suspension at final concentrations of 100 ng/ml and 50 ng/ml respectively, and 50 μL of the stimulated cells were added to all remaining wells on the 384-well compound plates. The plates, with lids, were then placed in a 37° C., 5% CO2 humidified incubator for 2 days.
(§4) Following incubation, the 384-well plates were removed from the incubator and allowed to equilibrate to room temperature for 30 minutes. For the cytotoxicity assay, CellTiter-Glo® was prepared according to the manufacturer's instructions, and 40 μL were added to each plate well. After a twenty minute incubation at room temperature, luminescence was read on an EnVision® Multilabel Reader (PerkinElmer Inc., Waltham, Mass.). For the mass spectrometry assay, 10 μL of supernatant from each well of the compound-treated plates were added to 40 μL of acetonitrile, containing 10 μM of an internal standard for normalization, in 384-well, polypropylene, V-bottom plates (Greiner Bio-One, Kremsmünster, Austria) to extract the organic analytes. Following centrifugation at 2000 rpm for 10 minutes, 10 μL from each well of the acetonitrile extraction plates were added to 90 μL of sterile, distilled H2O in 384-well, polypropylene, V-bottom plates for analysis of kynurenine and the internal standard on the RapidFire 300 (Agilent Technologies, Santa Clara, Calif.) and 4000 QTRAP MS (SCIEX, Framingham, Mass.). MS data were integrated using Agilent Technologies' RapidFire Integrator software, and data were normalized for analysis as a ratio of kynurenine to the internal standard. […]

[2] = biological target: indoleamine 2, 3-dioxygenase (IDO1) (Homo sapiens, UniProt P14902); test: IDO1 PBMC RapidFire MS assay (kynurenine detection by mass spectrometry); type: cell-based; design: to induce the expression of indoleamine 2, 3-dioxygenase (IDO1); host or cells: human PBMC stimulated with IFN-gamma and LPS; conditions: human PBMC stimulated with IFN-γ and LPS, 2 days, pIC50, read-out: PBMC PXC50 (converted)
Procedure: IDO1 PBMC RapidFire MS Assay
as §1, §2, §3, §4

indoleamine 2, 3-dioxygenase (IDO1), sequence (P14902 whole entry): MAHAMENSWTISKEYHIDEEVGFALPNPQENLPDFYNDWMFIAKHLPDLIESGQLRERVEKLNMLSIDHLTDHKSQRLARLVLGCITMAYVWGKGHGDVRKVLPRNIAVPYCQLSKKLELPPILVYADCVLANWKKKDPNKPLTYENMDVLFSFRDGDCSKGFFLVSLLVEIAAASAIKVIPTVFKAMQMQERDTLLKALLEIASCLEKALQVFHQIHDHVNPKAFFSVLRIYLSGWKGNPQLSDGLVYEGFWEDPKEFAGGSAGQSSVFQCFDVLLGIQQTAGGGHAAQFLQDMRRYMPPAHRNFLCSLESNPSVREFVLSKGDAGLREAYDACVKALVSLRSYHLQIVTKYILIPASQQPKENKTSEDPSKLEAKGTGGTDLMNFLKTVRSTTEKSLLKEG

| Compound | IC50 [2] | PBMC TOX PXC50 [1] |
| --- | --- | --- |
| CC(C)CN(c1ccc([C@H](C)CC(=O)O)cc1Nc1ccc(C#N)nc1)C1CCOCC1 [Example 13, (R)-3-(3-((6-cyanopyridin-3-yl)amino)-4-(isobutyl(tetrahydro-2H-pyran-4-yl)amino)phenyl)butanoic Acid] | 1.26 nM | <5 |
| CC(C)CN(CC(C)C)c1ccc([C@H](C)CC(=O)O)cc1Nc1ccc(=O)[nH]c1 [example 217, (3R)-3-{4-[bis(2-methylpropyl)amino]-3-[(6-oxo-1,6-dihydropyridin-3-yl)amino]phenyl}butanoic acid] | 3980 nM | <5 |
| CC(C)CN(c1ccc([C@H](C)CC(=O)O)cc1Nc1ncc(C(F)(F)F)cn1)C1CCOCC1 [example 241, (3R)-3-{4-[(2-methylpropyl)(oxan-4-yl)amino]-3-{[5-(trifluoromethyl)pyrimi-din-2-yl]amino}phenyl}butanoic acid] | 79.4 nM | <5 |
| CO[C@H](C)CN(C[C@@H](C)OC)c1ccc([C@H](C)CC(=O)O)cc1Nc1nc(C(F)(F)F)ns1 [example 258, (3R)-3-(4-{bis[(2R)-2-methoxypropyl]amino}-3-{[3-(trifluoromethyl)-1,2,4-thiadiazol-5-yl]amino}phenyl)butanoic acid] | 79.4 nM | <5 |
| CC(C)CN(c1cc(F)c([C@H](C)CC(=O)O)cc1Nc1ccc(Cl)cn1)C1CCOCC1 [Example 36, (R)-3-(5-((5-chloropyridin-2-yl)amino)-2-fluoro-4-(isobutyl(tetrahydro-2H-pyran-4-yl)amino)phenyl)butanoic Acid] | 0.631 nM | <5 |
| CC(C)CN(c1ccc([C@H](C)CC(=O)O)cc1Nc1ccc(C(F)(F)F)nn1)C1CCOCC1 [Example 18, (R)-3-(4-(isobutyl(tetrahydro-2H-pyran-4-yl)amino)-3-((6-(trifluoromethyl)pyridazin-3-yl)amino)phenyl)butanoic Acid] | 2 nM | <5 |
| CC(C)CN(c1c(F)cc([C@H](C)CC(=O)O)cc1Nc1ccc(Cl)cn1)C1CCOCC1 [Example 35, (R)-3-(3-((5-chloropyridin-2-yl)amino)-5-fluoro-4-(isobutyl(tetrahydro-2H-pyran-4-yl)amino)phenyl)butanoic Acid] | 0.501 nM | <5 |
| CO[C@H]1CC[C@H](N(CC(C)C)c2ccc([C@H](C)CC(=O)O)cc2Nc2ccc(C#N)cn2)CC1 [Example 56, (R)-3-(3-((5-cyanopyridin-2-yl)amino)-4-(isobutyl((1r,4R)-4-methoxycyclohexyl)amino)phenyl)butanoic Acid] | 3.98 nM | <5 |
| CC(C)CN(c1ccc(-c2ccccc2C(=O)O)cc1Nc1nc(C#N)ns1)C1CCCCC1 [Example 89, 3′-((3-cyano-1,2,4-thiadiazol-5-yl)amino)-4′-(cyclohexyl(isobutyl)amino)-[1,1′-biphenyl]-2-carboxylic Acid] | 3.98 nM | <5 |

The next lines start with results.

| IC50 [2] | Compound | PBMC TOX PXC50 [1] |
| --- | --- | --- |
| > 10000 nM | CC(C)CN(c1ccc([C@H](C)CC(=O)O)cc1Nc1ncc(C(N)=O)cn1)C1CCOCC1 [example 248, (3R)-3-{3-[(5-carbamoylpyrimidin-2-yl)amino]-4-[(2-methylpropyl)(oxan-4-yl)amino]phenyl}butanoic acid] | <5 |
| 7.94 nM | CC(C)CN(c1ccc([C@H](C)CC(=O)O)cc1Nc1nc(Cl)ns1)C1CC2(CCC2)C1 [Example 98, (R)-3-(3-((3-chloro-1,2,4-thiadiazol-5-yl)amino)-4-(isobutyl(spiro[3.3]heptan-2-yl)amino)phenyl)butanoic Acid] | <5 |
| 1.26 nM | CC(C)CN(c1ccc([C@H](C)CC(=O)O)cc1Nc1n[nH]c(C(F)(F)F)n1)[C@H]1CC[C@@H](Br)CC1 [Example 93, (R)-3-(4-(((cis)-4-bromocyclohexyl) (isobutyl)amino)-3-((5-(trifluoromethyl)-1H-1,2,4-triazol-3-yl)amino)phenyl)butanoic Acid] | <5 |
| 2 nM | CC(C)CN(c1ccc([C@H](C)Cc2nnn[nH]2)cc1Nc1nc(Cl)ns1)C1CCOCC1 [Example 100, (R)-4-(1-(1H-tetrazol-5-yl)propan-2-yl)-N^2-(3-chloro-1,2,4-thiadiazol-5-yl)-N^1-isobutyl-N^1-(tetrahydro-2H-pyran-4-yl)benzene-1,2-diamine] | <5 |
| 6.31 nM | CC(C)CN(c1ccc([C@H](C)CC(=O)O)cc1Nc1n[nH]c(Cl)n1)C1CCOCC1 [Example 34, (R)-3-(3-((5-Chloro-1H-1,2,4-triazol-3-yl)amino)-4-(isobutyl(tetrahydro-2H-pyran-4-yl)amino)phenyl)butanoic Acid] | <5 |
| 3160 nM | CNC(=O)c1c[nH]c(Nc2cc([C@H](C)CC(=O)O)ccc2N(CC(C)C)C2CCOCC2)n1 [example 232, (3R)-3-(3-{[4-(methylcarbamoyl)-1H-imidazol-2-yl]amino}-4-[(2-methylpropyl)(oxan-4-yl)amino]phenyl)butanoic acid] | <5 |
| 3.98 nM | CO[C@H]1CC[C@@H](N(CC(C)C)c2ccc([C@H](C)CC(=O)O)cc2Nc2nc(C(F)(F)F)c[nH]2)CC1 [Example 62, (R)-3-(4-(isobutyl((cis)-4-methoxycyclohexyl)amino)-3-((4-(trifluoromethyl)-1H-imidazol-2-yl)amino)phenyl)butanoic Acid] | <5 |
| 1 nM | CC(C)CN(c1ccc([C@H](C)CC(=O)O)cc1Nc1cnc(Cl)cn1)C1CCOCC1 [Example 12, (R)-3-(3-((5-chloropyrazin-2-yl)amino)-4-(isobutyl(tetrahydro-2H-pyran-4-yl)amino)phenyl)butanoic Acid] | <5 |
| 316 nM | CC(C)CN(c1ccc([C@H](C)CC(=O)O)cc1Nc1ccc(C(N)=O)nn1)C1CCOCC1 [example 253, (3R)-3-{3-[(6-carbamoylpyridazin-3-yl)amino]-4-[(2-methylpropyl)(oxan-4-yl)amino]phenyl}butanoic acid] | <5 |
| 1.26 nM | CC(C)CN(c1ccc([C@H](C)CC(=O)O)cc1Nc1ccc(Cl)c(F)n1)C1CCOCC1 [Example 14, (R)-3-(3-((5-chloro-6-fluoropyridin-2-yl)amino)-4-(isobutyl(tetrahydro-2H-pyran-4-yl)amino)phenyl)butanoic acid] | <5 |
| 20 nM | CC(C)CN(c1ccc(C(C)NC(N)=O)cc1Nc1nc(C(F)(F)F)ns1)C1CCOCC1 (stereo not drawn) [example 249, (1-{4-[(2-methylpropyl)(oxan-4-yl)amino]-3-{[3-(trifluoromethyl)-1,2,4-thiadiazol-5-yl]amino}phenyl}ethyl) urea] | <5 |
| 20 nM | CC(C)CN(c1ccc(C(C)CC(=O)O)cc1Nc1nnc(C(=O)NC2CC2)s1)C1CCCCC1 (stereo not drawn) [example 238, 3-{4-[cyclohexyl(2-methylpropyl)amino]-3-{[5-(cyclopropylcarbamoyl)-1,3,4-thiadiazol-2-yl]amino}phenyl}butanoic acid] | <5 |
